Assay results from publication PMC9816242, “Human metabolism and excretion kinetics of benzotriazole UV stabilizer UV-327 after single oral administration” (Archives of Toxicology, 2022).

Legend:
clinical [1] = conditions: for form present in urine (conjugated/unconjugated): urine processed with and without enzymatic hydrolysis; for relative urinary share of the amount recovered within 72 h: % of the dose recovered in urine within 72 h; for t1/2 (elimination half-life, renal excretion): from mean excretion curves
Description: Enzymatic hydrolysis was performed at 37 °C for 16 h using β-glucuronidase/arylsulfatase from H. pomatia. The analytes and internal standards were extracted by dispersive liquid–liquid microextraction (DLLME) with isopropanol and chloroform. […] The urinary creatinine content was determined photometrically by the Jaffé’s method (Larsen [1972]).
Renal excretion rates (RE, in µg/h) of each analyte at a certain point in time were calculated by the following equation: RE=ci×vi/ti-ti-1
where ci (in µg/l) is the concentration of UV-327 or its metabolites in the urine sample i, vi (in l) is the volume of the respective urine sample, ti (in h) is the elapsed time value of the sampling, and ti−1 (in h) is the elapsed time value of the previous sampling.
Renal excretion kinetics of UV-327 and its metabolites were plotted as temporal progressions of the renal excretion rates RE at the midpoint of the respective sampling periods (ti,m in h), which were calculated as follows: ti,m=ti-1+ti-ti-1/2
Excretion curves were prepared for each study participant and each analyte by plotting the current excretion rates against the average time of the sampling period. Mean excretion curves were then obtained by averaging the closest sampling time points and the corresponding renal excretion rates for all study participants (mean ± standard deviation (SD)). The slopes (kel, elimination rate constant) of the ln-transformed mean excretion curves were used to calculate the elimination half-lives (t1/2) as follows: t1/2=ln(2)/kel
By summing the molar excreted amounts of UV-327 and its metabolites, the cumulative excreted amount of each analyte (in µmol) was calculated for each study participant: ∑i=0nci×vi/M
Furthermore, urinary excretion factors (FUE) as UV-327 dose equivalents (as percentages) were calculated to express the total excretion of UV-327 and its metabolites in urine after 24 h, 48 h, and 72 h: FUE=CEi/MD×100
CEi is the amount of the respective analyte excreted after 24 h, 48 h, and 72 h (in µmol) and MD is the ingested amount of UV-327 (in µmol).
The shares of conjugation of UV-327 and its metabolites were determined by correlation of the urinary excretion rates obtained with and without the performance of enzymatic hydrolysis. The slope of the linear fit describes the percentage of the unconjugated form of the respective analyte.

[2] = UV-327 and metabolites in whole blood of volunteers after single oral administration of UV-327; conditions: for share of the total amount of all analytes at the time point of maximum concentration: blood, UV-327 equivalents at cmax; for time after which mean blood level was below LOD / cmax (maximum blood level): whole blood; for time after which mean blood level was below LOD: single oral 0.3 mg/kg UV-327; for cmax (maximum blood level): single oral 0.3 mg/kg body weight UV-327, n = 3, mean ± SD
Description: (§1) The administered dose of UV-327 was calculated with respect to an adequate distance from the no observed adverse effect level (NOAEL) determined in toxicological studies. […] As a result, 0.3 mg of UV-327/kg body weight was administered to each participant.
(§2) For the determination of potential background exposure, one blood and one urine sample of each participant were collected prior to the oral administration of UV-327. 14–29 mg of UV-327 were weighed directly onto a small piece of bread with butter, which was then consumed by the volunteers. Samples of urine and blood were then collected up to 72 h post-application. The participants collected all urine voids in separate containers. The sampling times and volumes of each sample were recorded. The urine samples were aliquoted and stored at − 50 °C until analysis. 9 ml of blood were drawn from peripheral veins at 2 h, 4 h, 6 h, 8 h, 10 h, 24 h, 34 h, 48 h, and 72 h after exposure and collected in EDTA-Monovettes®. Additional blood samples were collected from one subject 14 h, 28 h, and 58 h after exposure. This study participant donated two blood samples at each point in time; one blood sample was centrifuged to obtain plasma samples. Both blood and plasma samples were stored at − 50 °C until analysis.
(§3) Whole blood samples were prepared, processed, and analyzed according to a previously published method (Fischer and Göen [2022]). Proteins and cellular components were precipitated by the addition of acetonitrile. After centrifugation, the supernatants were diluted with water and ammonium acetate buffer. For analyte extraction, chloroform was added. The extracts were evaporated to dryness, followed by the addition of toluene and derivatization with both BSA/TCMS and TSIM. LODs ranged from 0.02 to 0.36 µg/l. […] Mean relative recovery rates ranged from 91% to 118%.
(§4) The blood samples of one study participant were additionally processed with the addition of β-glucuronidase/arylsulfatase from H. pomatia and incubation at 37 °C for 16 h to examine potential conjugation of UV-327 and its metabolites to glucuronide/sulfate.
(§5) A TRACE 1310 gas-chromatographic system equipped with a TriPlus RSH autosampler and a split/splitless injector was used for the analysis of the urine, blood, and plasma samples. The gas-chromatographic system was coupled to a TSQ 9000 triple–quadrupole mass spectrometer equipped with an advanced electron ionization (AEI) source (Thermo Fisher Scientific Inc., Waltham, USA). Chromatographic separation was performed on a (5% phenyl)-methylpolysiloxane low-bleed capillary column (HP-5msUI, 60 m × 250 µm × 0.25 µm, Agilent Technologies, Inc., Santa Clara, USA) at a constant flow rate of 1 ml/min using helium as a carrier gas. Total analysis time was 44 min. The GC–MS/MS equipment and parameter-specific settings were used as described in earlier publications for the analysis of urine (Fischer and Göen [2021]) and blood samples (Fischer and Göen [2022]). Plasma samples were analyzed using the same parameter-specific settings as for the analysis of blood samples.
(§6) Mean concentration–time curves in blood were obtained by plotting the mean blood levels against time. The elimination half-lives (t1/2) were calculated as described above. […] For this purpose, UV-327 equivalents (as percentages) were calculated as follows: ∑i=0ncmax/M×MUV-327×100

[3] = UV-327 and metabolites in plasma of one volunteer after single oral administration of UV-327; conditions: n = 1; AUC plasma / AUC blood per method
Description: (§7) For the determination of potential background exposure, one blood and one urine sample of each participant were collected prior to the oral administration of UV-327. 14–29 mg of UV-327 were weighed directly onto a small piece of bread with butter, which was then consumed by the volunteers. Samples of urine and blood were then collected up to 72 h post-application. The participants collected all urine voids in separate containers. The sampling times and volumes of each sample were recorded. The urine samples were aliquoted and stored at − 50 °C until analysis. 9 ml of blood were drawn from peripheral veins at 2 h, 4 h, 6 h, 8 h, 10 h, 24 h, 34 h, 48 h, and 72 h after exposure and collected in EDTA-Monovettes®. […] Both blood and plasma samples were stored at − 50 °C until analysis.
(§8) Stock solutions of each analyte and internal standard (200 mg/l) were prepared in acetone. For calibration, an analyte spiking solution was prepared in a mixture of acetonitrile and aqueous 0.9% NaCl solution (v/v, 1:1), which contained 500 µg/l of each metabolite. For the determination of UV-327, two analyte spiking solutions were prepared, containing 2 mg/l or 40 mg/l of UV-327 in a mixture of acetonitrile and 0.9% NaCl solution (v/v, 1:1). The internal standard spiking solution contained 20 mg/l of D20-UV-327 and 1 mg/l each of D6-UV-327-4-mcx, D6-UV-327-4-mOH, D12-UV-327-4 + 6-diOH, and D6-UV-327-4-mOH-6-mcx. For derivatization, a solution containing 5% (v/v) TSIM in toluene was freshly prepared for each analytical run. Calibration standards were prepared by spiking human plasma with various volumes of the analyte spiking solutions. An eight-point calibration curve in the range of 0.5–25 µg/l was applied for the determination of the metabolites, except for UV-327-4-mOH-6-mcx, for which the calibration range was set to 2–100 µg/l due to higher limits of detection and quantitation. For the determination of UV-327, a nine-point calibration curve in the range of 10–2000 µg/l was applied. A reagent blank sample, containing water instead of plasma, was included in each analytical run. […]

[4] = design: method as in Sommer et al. [2020]; conditions: oral administration, ref Sommer et al. [2020]; cited from earlier work
rats [5] = conditions: ref Ema et al. [2008]; cited from earlier work
clinical [6] = conditions: human, plasma, po, 0.3 mg/kg
Description: as §7, §8

human serum albumin = test system: human serum albumin; design: method as in Zhuang et al. [2016]; conditions: ref Zhuang et al. [2016]; cited from earlier work
beagle dogs = conditions: 90-day feeding study, ref CIBA AG [1970]; cited from earlier work
[7] = design: method as in Cantwell et al. [2015]; conditions: ref Cantwell et al. [2015]; cited from earlier work
human estrogen receptor = test system: human estrogen receptor; design: method as in Fent et al. [2014]; Sakuragi et al. [2021]; conditions: ref Fent et al. [2014]; Sakuragi et al. [2021]; cited from earlier work
rats [8] = conditions: especially male, ref Ema et al. [2008]; cited from earlier work
human androgen receptor = test system: human androgen receptor; design: method as in Fent et al. [2014]; Sakuragi et al. [2021]; conditions: ref Fent et al. [2014]; Sakuragi et al. [2021]; cited from earlier work
[9] = in vitro; ref Fischer et al. [2020]; cited from earlier work
[10] = test system: thyroid hormone receptors; design: method as in Nagayoshi et al. [2015]; conditions: ref Nagayoshi et al. [2015]; cited from earlier work
clinical [11] = conditions: both, human, whole blood, po, 0.3 mg/kg
Description: as §1, §2, §3, §4, §5, §6

rats [12] = conditions: ref Ema et al. [2006]; cited from earlier work
[13] = in vivo, po; cited from earlier work
[14] = urine of one participant, with vs without enzymatic hydrolysis
[15] = urine up to 72 h, n = 3, mean ± SD
[16] = both, human, in vivo, po, 0.3 mg/kg

2-(5-chloro-benzotriazol-2-yl)-4,6-di-(1-hydroxy-2-methylpropyl)phenol [UV-327-4 + 6-diOH]
FUE after 24 h (urinary excretion factor) (clinical [1]; human, in vivo): 0.0104 ± 0.0022% | FUE after 48 h (urinary excretion factor) (clinical [1]; human, in vivo): 0.0156 ± 0.0027% | FUE after 72 h (urinary excretion factor) (clinical [1]; human, in vivo): 0.018% | REmax (maximum renal excretion rate) (clinical [1]; human, in vivo, po, 0.3 mg/kg): 0.214 ± 0.058 µg/h | tmax (time point of maximum renal excretion rate) (clinical [1]; human, in vivo, po, 0.3 mg/kg): 10.6 ± 0.08 h | Share of conjugation (clinical [1]; [14]): 100% | form present in urine (conjugated/unconjugated) (clinical [1]): only present in their conjugated forms | Cumulative excreted amount (clinical [1]; [15]): 0.0121 ± 0.0051 µmol | FUE after 72 h (urinary excretion factor) (clinical [1]; urine, % of ingested UV-327 dose, 72 h, n = 3, mean ± SD): 0.0183 ± 0.0030% | relative urinary share of the amount recovered within 72 h (clinical [1]; urine): 64.5% | t1/2 (elimination half-life, renal excretion) (clinical [1]; urine, n = 3): 33.0 h | detection in blood ([2]; blood samples up to 72 h post-exposure): not detected in blood

2-(5-chloro-benzotriazol-2-yl)-4-(1-hydroxy-2-methylpropyl)-6-(tert-butyl)phenol [UV-327-4-mOH]
FUE after 24 h (urinary excretion factor) (clinical [1]; human, in vivo): 0.0016 ± 0.0004% | FUE after 48 h (urinary excretion factor) (clinical [1]; human, in vivo): 0.0022 ± 0.0007% | FUE after 72 h (urinary excretion factor) (clinical [1]; human, in vivo): 0.0026 ± 0.0011% | REmax (maximum renal excretion rate) (clinical [1]; human, in vivo, po, 0.3 mg/kg): 0.032 ± 0.012 µg/h | tmax (time point of maximum renal excretion rate) (clinical [1]; human, in vivo, po, 0.3 mg/kg): 13.5 ± 0.05 h | Share of conjugation (clinical [1]; [14]): 100% | form present in urine (conjugated/unconjugated) (clinical [1]): only present in their conjugated forms | Cumulative excreted amount (clinical [1]; [15]): 0.0016 ± 0.0009 µmol | relative urinary share of the amount recovered within 72 h (clinical [1]; urine): 9.2% | t1/2 (elimination half-life, renal excretion) (clinical [1]; urine, n = 3): 26.7 h | share of the total amount of all analytes at the time point of maximum concentration [2]: 0.04% | time after which mean blood level was below LOD [2]: 72 h | cmax (maximum blood level) [2]: 0.26 ± 0.10 µg/L | plasma to blood ratio [3]: 1.5 to 1.6

2-(5-chloro-benzotriazol-2-yl)-6-(1-hydroxy-2-methylpropyl)-4-(tert-butyl)phenol [UV-327-6-mOH]
FUE after 24 h (urinary excretion factor) (clinical [1]; human, in vivo): 0.0034 ± 0.0006% | FUE after 48 h (urinary excretion factor) (clinical [1]; human, in vivo): 0.0046 ± 0.0010% | FUE after 72 h (urinary excretion factor) (clinical [1]; human, in vivo): 0.0049 ± 0.0013% | REmax (maximum renal excretion rate) (clinical [1]; human, in vivo, po, 0.3 mg/kg): 0.068 ± 0.06 µg/h | tmax (time point of maximum renal excretion rate) (clinical [1]; human, in vivo, po, 0.3 mg/kg): 8.7 ± 0.21 h | Share of conjugation (clinical [1]; [14]): 100% | form present in urine (conjugated/unconjugated) (clinical [1]): only present in their conjugated forms | Cumulative excreted amount (clinical [1]; [15]): 0.0030 ± 0.0011 µmol | relative urinary share of the amount recovered within 72 h (clinical [1]; urine): 17.2% | t1/2 (elimination half-life, renal excretion) (clinical [1]; urine, n = 3): 13.9 h | share of the total amount of all analytes at the time point of maximum concentration [2]: 0.04% | time after which mean blood level was below LOD [2]: 48 h | cmax (maximum blood level) [2]: 0.27 ± 0.10 µg/L | plasma to blood ratio [3]: 1.5 to 1.6

CN(C)CCc1ccc(O)cc1 [N,N-dimethyltyramine]
time to plasma peak level [4]: 30 to 90 min

CC(C)(C)c1cc(-n2nc3ccc(Cl)cc3n2)c(O)c(C(C)(C)C)c1 [UV-327, 2-(5-chloro-benzotriazol-2-yl)-4,6-di-(tert-butyl)phenol]
reproductive toxicity (rats [5]): did not cause reproductive | Tmax (clinical [6]): 6 h | Cumulative excreted amount (clinical [1]; both, human, in vivo): 0.0016 ± 0.0007 µmol | FUE after 24 h (urinary excretion factor) (clinical [1]; both, human, in vivo): 0.0015 ± 0.0004% | FUE after 48 h (urinary excretion factor) (clinical [1]; both, human, in vivo): 0.0023 ± 0.0007% | FUE after 72 h (urinary excretion factor) (clinical [1]; both, human, in vivo): 0.0026 ± 0.0009% | half-life (clinical [1]; both, human, in vivo): 18.2 h | share of the total 72 h urinary amount (UV-327 and its metabolites) excreted within 24 h (clinical [1]; both, human, in vivo): 61% | share of the total 72 h urinary amount (UV-327 and its metabolites) excreted within 48 h (clinical [1]; both, human, in vivo): 88% | REmax (maximum renal excretion rate) (clinical [1]; [16]): 0.026 ± 0.007 µg/h | Tmax (clinical [1]; [16]): 13.5 ± 0.05 h | Share of conjugation (clinical [1]; human, in vivo): 16% | unconjugated form in urine (clinical [1]; human, in vivo): 84% | relative urinary share of the amount recovered within 72 h (clinical [1]; urine): 9.0% | binding to human serum albumin (human serum albumin): found to bind to human serum albumin by forming hydrogen bonds | NOAEL (beagle dogs): 30 mg/kg/day | Log Kow [7]: 6.75 | activity against human estrogen receptor (human estrogen receptor): no activity | liver findings after repeated oral administration (rats [8]): increased liver weights, histopathological changes in hepatic tissue, and alterations in liver-specific blood parameters | activity against human androgen receptor (human androgen receptor): no activity | extent of metabolism in human liver microsomes [9]: only moderately metabolized | conjugation in blood (with vs without enzymatic hydrolysis) ([2]; blood of one participant, β-glucuronidase/arylsulfatase): not present as conjugates in blood | share of the total amount of all analytes at the time point of maximum concentration [2]: 99.9% | activity against thyroid hormone receptors [10]: no activity | Cmax (clinical [11]): 632 ± 114 ng/mL | Tmax (clinical [11]): 6 h | concentration at 24 h (clinical [11]): 103 ± 24 ng/mL | concentration at 72 h (clinical [11]): 27 ± 5 ng/mL | oral LD50 (rats [12]): > 5000 mg/kg body weight

CCCOC(=O)c1ccc(O)cc1 [propyl paraben]
time to maximum serum level [13]: 1.4 ± 1.1 h
